Laboratory results as given in publication PMC12029982, “The Mechanism of a Novel Mitochondrial-Targeted Icaritin Derivative in Regulating Apoptosis of BEL-7402 Cells Based on the SIRT3 and CypD-Mediated ROS/p38 MAPK Signaling Pathway” (Molecules, 2025).

What was measured:
A549 = assay: MTT assay, antiproliferative activity; format: cell-based; conditions: Homo sapiens, 48 h drug exposure, mean ± SD
Experimental: (§1) Human cancer cell lines BEL-7402, A549, MCF-7, PC-3M, and normal renal cell line HEK293 were bought from the BeNa Culture Collection (Beijing, China). BEL7402, A549, and PC-3M were cultured in RPMI 1640 medium (Gibco, Carlsbad, CA, USA). MCF-7 and HEK293 were cultured in the DMEM medium (Gibco, CA, USA). The medium was supplemented with 10% fetal bovine serum (FBS) (CLARK, San Diego, CA, USA), 100 U/mL penicillin, and 0.1 mg/mL streptomycin (Beyotime, Nanjing, China). The cells were incubated in 5% CO2 at 37 °C.
(§2) The MTT assay was employed to assess the inhibitory effect of each compound on cell growth. A549, PC-3M, MCF-7, BEL-7402, and HEK293 cells in the logarithmic growth phase were seeded in 96-well culture plates at an inoculum density of 5 × 10^4 cells/mL. After overnight incubation at 37 °C in a 5% CO2 atmosphere, the cells fully adhered to the surface. Different concentrations of sample solutions (0, 3.125, 6.25, 12.5, 25, 50, 100 μmol/L) were added (100 μL) to treat the cells. After 48 h of drug treatment, 10 μL of a 5 mg/mL MTT solution was added to each well and incubated for 4 h at 37 °C. The supernatant was then discarded, and 150 μL of DMSO was added to dissolve the formazan. The mixture was shaken at room temperature for 15 min, and the absorbance (D) value was measured at 490 nm using a Microplate Reader (HBS-ScanY, Nanjing, China). The drug IC50 values were calculated using GraphPad Prism (v10.0). Each cell viability experiment was performed in triplicate.

BEL-7402 = assay: MTT assay, antiproliferative activity; format: cell-based; conditions: Homo sapiens, 48 h drug exposure, mean ± SD
Experimental: as §1, §2

IC50 (A549): 5.15 ± 0.59 µM | IC50 (BEL-7402): 0.73 ± 0.06 µM
SMILES: COc1ccc(-c2oc3c(CC=C(C)C)c(OC(=O)CCCCCCCCCC[P+](c4ccccc4)(c4ccccc4)c4ccccc4)cc(O)c3c(=O)c2O)cc1 [Mito-ICT-4]
